According to US5210097A, “Xanthocillin X monomethyl ether derivative and antitumor agent containing the same” (Meiji Seika Kaisha Ltd., priority 1989, dated 1993):
Converted amounts (≈) assume the structure as drawn.

Legend:
Meth-A cells = test: Cytotoxicity in vitro (MTT assay, 3 days incubation); type: cell-based, murine; conditions: Mus musculus, 72 h, read-out: 50% inhibition concentration (IC50)
Protocol: The cytotoxic effect of each compound of the present invention in vitro was evaluated in the following manner. Dulbecco's modified MEM medium containing 10% (v/v) of fetal calf serum was used as a medium while Meth-A solid tumor was used as a tumor. The cytotoxic effect of each compound on this tumor was examined. Meth-A cells, which had been subcultured in a carbon dioxide gas incubator, were suspended in the above-mentioned medium so as to give a density of 5×10^4 cells/ml. 135 μl portions of the suspension thus obtained were poured into 96-well microtiter plates. Each test compound was dissolved in a small amount of DMF and diluted with Dulbecco's modified MEM medium to a predetermined concentration. 15 μl portions of test compound solutions at various concentrations were added thereto and then incubated in a carbon dioxide gas incubator for 3 days. After the completion of the incubation, the 50% inhibition concentration (IC50) was determined by the MTT assay method ["Igaku no Ayumi", vol. 128, 733-735 (1984)].

Meth-A solid tumor = test: Inhibition of tumor growth in vivo (Meth-A solid tumor, Balb/c mouse); parameters: species or system murine (female Balb/c mouse); conditions: intraperitoneal, once a day for 4 days; for Tumor weight: tumor weighed two weeks after transplantation, mean ± standard deviation; for Inhibition of tumor growth: two weeks after transplantation, versus control
Protocol: The inhibition of tumor growth by the compounds of the present invention in vivo were evaluated in the following manner. 10^6 cells of Meth-A murine tumor cells were transplanted to the dorsal subcutaneous part of a female Balb/c mouse aged 6 weeks. On the next day of the transplantation, a test compound at each concentrations was intraperitoneally administered to the animal. The compound was suspended in a 1% solution of carboxymethyl cellulose (CMC) and thoroughly mixed ultrasonically. Alternately, it was thoroughly ground in a mortar and then suspended in a CMC solution. Thus a sample for injection was prepared. The test compound was administered once a day for 4 days continuously. To a control group, a 1% solution of CMC was administered once a day for 4 days continuously. Two weeks after the transplantation, the dorsal tumor was taken out and weighed to thereby determine the inhibition of tumor growth.

[1] = Acute toxicity, intraperitoneal; conditions: mouse, in vivo, ip, female Balb/c mice aged 7 weeks
Ehrich ascites tumor = conditions: cited from earlier work
[2] = tested on: conversion of arachidonic acid into prostaglandin H2; conditions: N. Kitahara et al., J. Antibiotics, 34, 1556-1561 (1981); cited from earlier work

With `[C-]#[N+]C(=Cc1ccc(OC)cc1)C(=Cc1ccc(OCc2ccncc2)cc1)[N+]#[C-]` [Compound No. 5, 1-[4'-(4"-pyridyl)methyloxyphenyl]-4-(4'-methoxyphenyl)-2,3-diisocyano-1,3-butadiene] the IC50 (Meth-A cells) was 0.7 µg/mL (≈ 1.78 µM).

With `[C-]#[N+]C(=Cc1ccc(OC)cc1)C(=Cc1ccc(OCc2ccc(C)cc2)cc1)[N+]#[C-]` [Compound No. 7, 1-[4'-(4"-toluyl)methyloxyphenyl]-4-(4'-methoxyphenyl)-2,3-diisocyano-1,3-butadiene] the IC50 (Meth-A cells) was 1.8 µg/mL (≈ 4.43 µM), the Tumor weight (Meth-A solid tumor; 30 mg/kg/day) was 0.60 ± 0.20 g and the “Inhibition of tumor growth” value (Meth-A solid tumor; 30 mg/kg/day) was 68.4%.

For `[C-]#[N+]C(=Cc1ccc(OC)cc1)C(=Cc1ccc(OCc2ccccn2)cc1)[N+]#[C-]` [Compound No. 6, 1-[4'-(2"-pyridyl)methyloxyphenyl]-4-(4'-methoxyphenyl)-2,3-diisocyano-1,3-butadiene], the LD50 [1] was > 120 mg/kg and the IC50 (Meth-A cells) was 0.24 µg/mL (≈ 0.61 µM).

In the case of `[C-]#[N+]C(=Cc1ccc(OC)cc1)C(=Cc1ccc(OCc2ccccc2)cc1)[N+]#[C-]` [Compound No. 2, 1-(4'-benzyloxyphenyl)-4-(4'-methoxyphenyl)-2,3-diisocyano-1,3-butadiene], the IC50 (Meth-A cells) is reported as 0.7 µg/mL (≈ 1.78 µM), the Tumor weight (Meth-A solid tumor; 30 mg/kg/day) is reported as 0.22 ± 0.04 g and the “Inhibition of tumor growth” value (Meth-A solid tumor; 30 mg/kg/day) is reported as 67.6%.

In the case of `[C-]#[N+]C(=Cc1ccc(O)cc1)C(=Cc1ccc(OC)cc1)[N+]#[C-]` [xanthocillin X monomethyl ether, 1-(4'-hydroxyphenyl)-2,3-diisocyano-4-(4'-methoxyphenyl)-1,3-butadiene], the “proliferation of Ehrich ascites tumor” value (Ehrich ascites tumor; during administration) is given as “would suppress the proliferation of Ehrich ascites tumor”, the “proliferation of cancer cells after stopping the administration” value (Ehrich ascites tumor; immediately after stopping the administration) is given as “the cancer cells would proliferate again immediately after stopping the administration of this compound” and the “inhibition of biosynthesis of prostaglandin or thromboxane” value [2] is given as “would inhibit the biosynthesis of prostaglandin or thromboxane”.

With `[C-]#[N+]C(=Cc1ccc(OC)cc1)C(=Cc1ccc(OC(=O)c2ccccc2)cc1)[N+]#[C-]` [Compound No. 8, 1-(4'-benzoyloxyphenyl)-4-(4'-methoxyphenyl)-2,3-diisocyano-1,3-butadiene] the LD50 [1] was > 300 mg/kg, the IC50 (Meth-A cells) was 1.7 µg/mL (≈ 4.18 µM) and the Tumor weight (Meth-A solid tumor; 30 mg/kg/day) was 1.40 ± 0.30 g. For the same molecule, the “Inhibition of tumor growth” value (Meth-A solid tumor; 30 mg/kg/day) was 26.3%.

In the case of `[C-]#[N+]C(=Cc1ccc(OC)cc1)C(=Cc1ccc(OCCCCCC)cc1)[N+]#[C-]` [Compound No. 4, 1-(4'-n-hexyloxyphenyl)-4-(4'-methoxyphenyl)-2,3-diisocyano-1,3-butadiene], the Tumor weight (Meth-A solid tumor; 30 mg/kg/day) is reported as 0.27 ± 0.20 g and the “Inhibition of tumor growth” value (Meth-A solid tumor; 30 mg/kg/day) is reported as 71.9%.

For `[C-]#[N+]C(=Cc1ccc(OC)cc1)C(=Cc1ccc(OCC(=O)OCC)cc1)[N+]#[C-]` [Compound No. 1], the LD50 [1] was 120 mg/kg, the IC50 (Meth-A cells) was 0.64 µg/mL (≈ 1.65 µM) and the Tumor weight (Meth-A solid tumor; 10 mg/kg/day) was 0.39 ± 0.08 g. For the same molecule, the “Inhibition of tumor growth” value (Meth-A solid tumor; 10 mg/kg/day) was 67.5%.

In the case of `[C-]#[N+]C(=Cc1ccc(OC)cc1)C(=Cc1ccc(OCc2ccc(Cl)cc2)cc1)[N+]#[C-]` [Compound No. 9, 1-[4'-(4"-chlorophenyl)methyloxyphenyl]-4-(4'-methoxy-phenyl)-2,3-diisocyano-1,3-butadiene], the LD50 [1] is reported as > 300 mg/kg, the IC50 (Meth-A cells) is reported as 1.8 µg/mL (≈ 4.22 µM) and the Tumor weight (Meth-A solid tumor; 30 mg/kg/day) is reported as 0.60 ± 0.50 g. The “Inhibition of tumor growth” value (Meth-A solid tumor; 30 mg/kg/day) was 68.4%.

For `[C-]#[N+]C(=Cc1ccc(OC)cc1)C(=Cc1ccc(OCCF)cc1)[N+]#[C-]` [Compound No. 3, 1-[4'-(2"-fluoroethyl)oxyphenyl]-4-(4'-methoxyphenyl)-2,3-diisocyano-1,3-butadiene], the LD50 [1] was > 120 mg/kg and the IC50 (Meth-A cells) was 1.5 µg/mL (≈ 4.31 µM).
